Data as given in US20220081433A1, “CYCLIC SULFAMIDE COMPOUNDS FOR TREATMENT OF HBV” (Assembly Biosciences, Inc., priority 2018, published 2022).

The molecules below were run on HBV (assay: Activity of test compounds on viral production from HepAD38 cells (viral load by qPCR of HBV core sequence)). Details: Hepatitis B virus, 120 h, 5 days, supernatant HBV DNA by qPCR vs DMSO control, read-out: viral load lowering EC50 (Activity).
Format: cell-based
Procedure: Assay Measuring Activity of Test Compounds on Viral Production from HepAD38 Cells
HepAD38 cells grown in a T-150 flask (Corning, cat#: 430825) with Growth Medium (DMEM/F12 (1:1) (Hyclone, cat#: SH30023.02), 1× Pen/Strep (Invitrogen, cat#: 15140-122), 10% FBS (Tissue Culture Biologics, cat#: 101), 250 μg/mL G418 (Alfa Aesar, cat#: J62671), 1 μg/mL Tetracycline (Teknova, cat#: T3320)) were detached with 0.25% trypsin-EDTA (Invitrogen, cat#: 25200-056). Tetracycline-free treatment medium (15 mL DMEM/F12 (1:1) 1×Pen/step, with 2% FBS, Tet-system approved (Clontech, cat#: 631106) were then added to mix, transferred into a 50 ml conical tube (Falcon, cat#: 21008-918) and spun at 1300 rpm for 5 min. Pelleted cells were then re-suspended/washed with 50 mL of 1×DPBS (Invitrogen, cat#: 14190-136) 2 times and 50 mL treatment medium twice. HepAD38 cells were then re-suspended with 10 mL of treatment medium, syringed and counted. Wells of 96-well clear bottom TC plate (Corning, cat#: 3904) were seeded at 50,000 cells/well in 180 μL of treatment medium, and 20 μL of either 10% DMSO (Sigma, cat#: D4540) as controls or a 10× solution of test compounds in 10% DMSO in treatment media was added for a final compound concentration starting at 10 μM, and plates were incubated in 5% CO2 incubator at 37° C. for 5 days.
Subsequently viral load production was assayed by quantitative PCR (qPCR) of the HBV core sequence. PCR reaction mixture containing forward primers HBV-f 5′-CTGTGCCTTGGGTGGCTTT-3′ (IDT DNA), Reverse primers HBV-r 5′-[…]-3′ (IDT DNA), Fluorescent TaqMan™ Probes HBV-probe 5′-FAM/AGCTCCAAA/ZEN/[…]/3IABkFQ-3′ (IDT DNA), 10 μL/well of PerfeCTa® qPCR ToughMix® (Quanta Biosciences, Cat#: 95114-05K), and 6 μL/well of DEPC water (Alfa Aesar, cat#: J62087) was prepared. Four μL of supernatant was added to 16 μL of the reaction mixture in a qPCR plate (Applied Biosytems, Cat#: 4309849), sealed with a film (Applied Biosystems, Cat#: 4311971), centrifuged for a few seconds, and subsequently run on an Applied Biosystems VIIA7. The PCR mixture was incubated at 45° C. for 5 min, then 95° C. for 10 min, followed by 40 cycles of 10 seconds at 95° C. and 20 seconds at 60° C. Viral load was quantified against known HBV DNA standards by using ViiA™ 7 Software. Viral load in the supernatant from wells with treated cells were compared against viral load in supernatant from DMSO control wells (≥ 3 per plate). Cell viability assay was performed with CellTiter-Glo Luminescent Cell Viability Assay (Promega, cat#: G7573) with modification. Mixed appropriate amount of CellTiter-Glo (CTG) 1×DPBS in a 1:1 ratio, added 100 uL of the mixture to each well followed completely removal of all supernatant in each well without touching cell surface. Incubated the plate at room temperature for 10 min on an orbital shaker, and then read the plate with a plate reader (TECAN M1000 or Envision). EC50 or CC50 values were calculated through curve-fitting of the four-parameter nonlinear-logistic-regression model (GraphPad Prism or Dotmatics). CC50 values were all >10 μM.

Row | Compound | EC50
1 | COC(=O)c1cccc(-c2cccc(C3CC(C(=O)Nc4ccc(F)c(Cl)c4)N(C)S(=O)(=O)N3)c2)c1 (stereo not shown) [Example 12, Methyl 3′-(5-((3-Chloro-4-fluorophenyl)carbamoyl)-6-methyl-1,1-dioxido-1,2,6-thiadiazinan-3-yl)-[1,1′-biphenyl]-3-carboxylate] | < 1 µM
2 | CN1CCN(c2cccc([C@H]3C[C@@H](C(=O)Nc4ccc(F)c(Cl)c4)N(C)S(=O)(=O)N3)c2)CC1 (single isomer, unassigned) [25-Isomer I] | < 1 µM
3 | CN1C(C(=O)Nc2ccc(F)c(Cl)c2)CC(c2n[nH]c(=O)n2Cc2ccccc2)NS1(=O)=O (stereo not shown) [Example 38, 5-(4-Benzyl-5-oxo-4,5-dihydro-1H-1,2,4-triazol-3-yl)-N-(3-chloro-4-fluorophenyl)-2-methyl-1,2,6-thiadiazinane-3-carboxamide 1,1-dioxide] | 5 to 10 µM
4 | COC(=O)Cc1ccc(-c2cccc(C3CC(C(=O)Nc4ccc(F)c(Cl)c4)N(C)S(=O)(=O)N3)c2)cc1 (stereo not shown) [Example 15, Methyl 2-(3′-(5-((3-chloro-4-fluorophenyl)carbamoyl)-6-methyl-1,1-dioxido-1,2,6-thiadiazinan-3-yl)-[1,1′-biphenyl]-4-yl)acetate] | < 1 µM
5 | Cc1cc(-c2cccc(C3CC(C(=O)Nc4ccc(F)c(Cl)c4)N(C)S(=O)(=O)N3)c2)ccn1 (stereo not shown) [Example 3, N-(3-Chloro-4-fluorophenyl)-2-methyl-5-(3-(2-methylpyridin-4-yl)phenyl)-1,2,6-thiadiazinane-3-carboxamide 1,1-dioxide] | < 1 µM
6 | CN1C(C(=O)Nc2ccc(F)c(Cl)c2)CC(c2cccc(-c3cncn3C)c2)NS1(=O)=O (stereo not shown) [Example 20, N-(3-Chloro-4-fluorophenyl)-2-methyl-5-(3-(1-methyl-1H-imidazol-5-yl)phenyl)-1,2,6-thiadiazinane-3-carboxamide 1,1-dioxide] | < 1 µM
7 | CN1C(C(=O)Nc2ccc(F)c(Cl)c2)CC(c2cccc(-c3cnn(CC(=O)O)c3)c2)NS1(=O)=O (stereo not shown) [Example 17, 2-(4-(3-(5-((3-Chloro-4-fluorophenyl)carbamoyl)-6-methyl-1,1-dioxido-1,2,6-thiadiazinan-3-yl)phenyl)-1H-pyrazol-1-yl)acetic acid] | 5 to 10 µM
8 | CN1C(C(=O)Nc2ccc(F)c(Cl)c2)CC(c2cccc(-c3cccc(C(F)(F)F)c3)c2)NS1(=O)=O (stereo not shown) [Example 8, N-(3-Chloro-4-fluorophenyl)-2-methyl-5-(3′-(trifluoromethyl)-[1,1′-biphenyl]-3-yl)-1,2,6-thiadiazinane-3-carboxamide 1,1-dioxide] | < 1 µM
9 | CN1[C@H](C(=O)Nc2ccc(F)c(Cl)c2)C[C@H](c2cccc(-c3ccc(Cl)c(Cl)c3)c2)NS1(=O)=O (single isomer, unassigned) [9-Isomer I] | < 1 µM
10 | CN1C(C(=O)Nc2ccc(F)c(Cl)c2)CC(c2ccc(-c3cn(C)cn3)o2)NS1(=O)=O (stereo not shown) [Example 36, N-(3-Chloro-4-fluorophenyl)-2-methyl-5-(5-(1-methyl-1H-imidazol-4-yl)furan-2-yl)-1,2,6-thiadiazinane-3-carboxamide 1,1-dioxide] | < 1 µM
11 | CN1[C@@H](C(=O)Nc2ccc(F)c(Cl)c2)C[C@@H](c2cccc(-c3ccc(Cl)c(Cl)c3)c2)NS1(=O)=O (single isomer, unassigned) [9-Isomer II] | 5 to 10 µM
12 | Cc1ccc(-c2cccc([C@@H]3C[C@H](C(=O)Nc4ccc(F)c(Cl)c4)N(C)S(=O)(=O)N3)c2)c(Cl)c1 (single isomer, unassigned) [6-Isomer II] | 1 to 5 µM
13 | CN1[C@H](C(=O)Nc2ccc(F)c(Cl)c2)C[C@H](c2cccc(-c3ccccc3)c2)NS1(=O)=O (single isomer, unassigned) [2-Isomer I] | < 1 µM
14 | CN1[C@H](C(=O)Nc2ccc(F)c(Cl)c2)C[C@H](c2cccc(N3CCOCC3)c2)NS1(=O)=O (single isomer, unassigned) [24-Isomer I] | < 1 µM
15 | Cc1cc(-c2cccc([C@@H]3C[C@H](C(=O)Nc4ccc(F)c(Cl)c4)N(C)S(=O)(=O)N3)c2)ccc1F (single isomer, unassigned) [10 Isomer II] | 5 to 10 µM
16 | Cc1cc(-c2cccc([C@H]3C[C@@H](C(=O)Nc4ccc(F)c(Cl)c4)N(C)S(=O)(=O)N3)c2)ccc1F (single isomer, unassigned) [10-Isomer I] | < 1 µM
17 | CN1[C@H](C(=O)Nc2ccc(F)c(Cl)c2)C[C@H](c2cccc(-c3cccc(C(F)(F)F)c3)c2)NS1(=O)=O (single isomer, unassigned) [8-Isomer I] | < 1 µM
18 | CN1C(C(=O)Nc2ccc(F)c(Cl)c2)CC(c2cccc(N3CCCCC3)c2)NS1(=O)=O (stereo not shown) [Example 23, N-(3-Chloro-4-fluorophenyl)-2-methyl-5-(3-(piperidin-1-yl)phenyl)-1,2,6-thiadiazinane-3-carboxamide 1,1-dioxide] | < 1 µM
19 | CN1[C@H](C(=O)Nc2ccc(F)c(Cl)c2)C[C@H](c2cccc(-n3ccnc3)c2)NS1(=O)=O (single isomer, unassigned) [27-Isomer I] | < 1 µM
20 | CN1CCN(c2cccc([C@@H]3C[C@H](C(=O)Nc4ccc(F)c(Cl)c4)N(C)S(=O)(=O)N3)c2)CC1 (single isomer, unassigned) [25-Isomer II] | 1 to 5 µM
21 | Cc1cc(-c2cccc(C3CC(C(=O)Nc4ccc(F)c(Cl)c4)N(C)S(=O)(=O)N3)c2)ccc1F (stereo not shown) [Example 10, N-(3-Chloro-4-fluorophenyl)-5-(4′-fluoro-3′-methyl-[1,1′-biphenyl]-3-yl)-2-methyl-1,2,6-thiadiazinane-3-carboxamide 1,1-dioxide] | < 1 µM
22 | CN1C(C(=O)Nc2ccc(F)c(Cl)c2)CC(c2cccc(N3CCOCC3)c2)NS1(=O)=O (stereo not shown) [Example 24, N-(3-Chloro-4-fluorophenyl)-2-methyl-5-(3-morpholinophenyl)-1,2,6-thiadiazinane-3-carboxamide 1,1-dioxide] | < 1 µM
23 | CN1C(C(=O)Nc2ccc(F)c(Cl)c2)CC(c2cccc(-c3ccccc3)c2)NS1(=O)=O (stereo not shown) [Example 2, 5-([1,1-Biphenyl]-3-yl)-N-(3-chloro-4-fluorophenyl)-2-methyl-1,2,6-thiadiazinane-3-carboxamide 1,1-dioxide] | < 1 µM
24 | CN1C(C(=O)Nc2ccc(F)c(Cl)c2)CC(c2cccc(-c3ccc(F)cc3Cl)c2)NS1(=O)=O (stereo not shown) [Example 5, 5-(2′-Chloro-4′-fluoro-[1,1′-biphenyl]-3-yl)-N-(3-Chloro-4-fluorophenyl)-2-methyl-1,2,6-thiadiazinane-3-carboxamide 1,1-dioxide] | < 1 µM
25 | CN1C(C(=O)Nc2ccc(F)c(Cl)c2)CC(c2cccc(-n3cccn3)c2)NS1(=O)=O (stereo not shown) [Example 26, 5-(3-(1H-Pyrazol-1-yl)phenyl)-N-(3-chloro-4-fluorophenyl)-2-methyl-1,2,6-thiadiazinane-3-carboxamide 1,1-dioxide] | < 1 µM
26 | CN1C(C(=O)Nc2ccc(F)c(Cl)c2)CC(c2cccc(-c3ccc(C(F)(F)F)cc3)c2)NS1(=O)=O (stereo not shown) [Example 21, N-(3-Chloro-4-fluorophenyl)-2-methyl-5-(4′-(trifluoromethyl)-[1,1′-biphenyl]-3-yl)-1,2,6-thiadiazinane-3-carboxamide 1,1-dioxide] | < 1 µM
27 | CN1C(C(=O)Nc2ccc(F)c(Cl)c2)CC(c2cccc(-c3cccc(C(=O)O)c3)c2)NS1(=O)=O (stereo not shown) [Example 19, 3′-(5-((3-Chloro-4-fluorophenyl)carbamoyl)-6-methyl-1,1-dioxido-1,2,6-thiadiazinan-3-yl)-[1,1′-biphenyl]-3-carboxylic acid] | 1 to 5 µM
28 | Cc1nnc(C2CC(C(=O)Nc3ccc(F)c(Cl)c3)N(C)S(=O)(=O)N2)n1C (stereo not shown) [Example 32, N-(3-Chloro-4-fluorophenyl)-5-(4,5-dimethyl-4H-1,2,4-triazol-3-yl)-2-methyl-1,2,6-thiadiazinane-3-carboxamide 1,1-dioxide] | 5 to 10 µM
